Experimental data as given in ChEMBL document CHEMBL1201862, “PubChem BioAssay data set” (2004).
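Test compounds were applied to cells in 96-well plates for 48 hours at 5 doses. The concentration for 50% growth inhibition is given as GI50.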 The source made the active and inactive calls. Cut-off read from the data, not from the text of the source: active = GI50 up to about 1.1 µM and inactive = higher.

Columns and labels:
Assay in all cases: DTP human tumour cell line panel, 48 h
UO-31 = test system: UO-31
NCI-H460 = test system: NCI-H460
HL-60 = test system: HL-60
M14 = test system: M14
HOP-62 = test system: HOP-62
OVCAR-8 = test system: OVCAR-8
NCI-H226 = test system: NCI-H226
SF-295 = test system: SF-295
SNB-75 = test system: SNB-75
SF-539 = test system: SF-539
MCF7 = test system: MCF7
BT-549 = test system: BT-549
A549 = test system: A549
HCT-116 = test system: HCT-116
TK-10 = test system: TK-10
HCT-15 = test system: HCT-15
SR = test system: SR
COLO 205 = test system: COLO 205
ACHN = test system: ACHN
OVCAR-5 = test system: OVCAR-5
U-251 = test system: U-251
CCRF-CEM = test system: CCRF-CEM
NCI-H522 = test system: NCI-H522
EKVX = test system: EKVX
NCI-H23 = test system: NCI-H23
786-0 = test system: 786-0
PC-3 = test system: PC-3
SF-268 = test system: SF-268
SN12C = test system: SN12C
SNB-19 = test system: SNB-19
CAKI-1 = test system: CAKI-1
OVCAR-4 = test system: OVCAR-4
HOP-92 = test system: HOP-92
SK-OV-3 = test system: SK-OV-3
LOX IMVI = test system: LOX IMVI
UACC-62 = test system: UACC-62
MOLT-4 = test system: MOLT-4
OVCAR-3 = test system: OVCAR-3
A498 = test system: A498
T47D = test system: T47D
RXF 393 = test system: RXF 393
SK-MEL-5 = test system: SK-MEL-5
UACC-257 = test system: UACC-257
HCC 2998 = test system: HCC 2998
KM12 = test system: KM12
MDA-MB-231 = test system: MDA-MB-231
NCI/ADR-RES = test system: NCI/ADR-RES
MDA-MB-435 = test system: MDA-MB-435
SK-MEL-28 = test system: SK-MEL-28
SK-MEL-2 = test system: SK-MEL-2
DU-145 = test system: DU-145
HT-29 = test system: HT-29
RPMI-8226 = test system: RPMI-8226
SW-620 = test system: SW-620
MDA-N = test system: MDA-N
Malme-3M = test system: Malme-3M
Hs-578T = test system: Hs-578T
IGROV-1 = test system: IGROV-1
K562 = test system: K562
KM-20L2 = test system: KM-20L2
M19-MEL = test system: M19-MEL
DLD-1 = test system: DLD-1
DMS-273 = test system: DMS-273
DMS-114 = test system: DMS-114

Q: For COc1cc2c3c(n(C)c(=O)c2cc1OC)-c1cc2c(cc1C3=O)OCO2, which GI50 (UO-31) is on record?
A: Its GI50 is 1.63 µM (inactive).

Q: And the GI50 (NCI-H460)?
A: Its GI50 is 0.596 µM (active).

Q: What about the GI50 (HL-60) of the same compound?
A: The GI50 was 22 µM (inactive).

Q: And the GI50 (M14)?
A: Its GI50 is 9.91 µM (inactive).

Q: And the GI50 (HOP-62)?
A: Its GI50 is 1.87 µM (inactive).

Q: And the GI50 (OVCAR-8)?
A: The GI50 was 38.4 µM (inactive).

Q: What about the GI50 (NCI-H226) of the same compound?
A: The GI50 was > 72.8 µM (inactive).

Q: And the GI50 (SF-295)?
A: Its GI50 is 0.871 µM (active).

Q: What about the GI50 (SNB-75) of the same compound?
A: The GI50 was 3.73 µM (inactive).

Q: And the GI50 (SF-539)?
A: The GI50 was 8.75 µM (inactive).

Q: And the GI50 (MCF7)?
A: Its GI50 is 1.23 µM (inactive).

Q: And the GI50 (BT-549)?
A: The GI50 was > 86.9 µM (inactive).

Q: And the GI50 (A549)?
A: Its GI50 is 55.1 µM (inactive).

Q: What about the GI50 (HCT-116) of the same compound?
A: The GI50 was 6.35 µM (inactive).

Q: What about the GI50 (TK-10) of the same compound?
A: Its GI50 is > 100 µM (inactive).

Q: And the GI50 (HCT-15)?
A: Its GI50 is greater than 96.2 µM.

Q: What about the GI50 (SR) of the same compound?
A: The GI50 was 0.105 µM (active).

Q: And the GI50 (COLO 205)?
A: The GI50 was > 100 µM (inactive).

Q: What about the GI50 (ACHN) of the same compound?
A: The GI50 was 1.01 µM (active).

Q: And the GI50 (OVCAR-5)?
A: Its GI50 is 54 µM (inactive).

Q: What about the GI50 (U-251) of the same compound?
A: Its GI50 is 9.38 µM (inactive).

Q: What about the GI50 (CCRF-CEM) of the same compound?
A: The GI50 was 0.237 µM (active).

Q: What about the GI50 (NCI-H522) of the same compound?
A: The GI50 was 1.46 µM (inactive).

Q: And the GI50 (EKVX)?
A: Its GI50 is 35.3 µM (inactive).

Q: And the GI50 (NCI-H23)?
A: Its GI50 is 5.01 µM (inactive).

Q: What about the GI50 (786-0) of the same compound?
A: The GI50 was 16.9 µM (inactive).

Q: What about the GI50 (PC-3) of the same compound?
A: The GI50 was > 70 µM (inactive).

Q: What about the GI50 (SF-268) of the same compound?
A: Its GI50 is 10.7 µM (inactive).

Q: What about the GI50 (SN12C) of the same compound?
A: Its GI50 is 38.6 µM (inactive).

Q: What about the GI50 (SNB-19) of the same compound?
A: Its GI50 is 27.1 µM (inactive).

Q: What about the GI50 (CAKI-1) of the same compound?
A: The GI50 was 4.98 µM (inactive).

Q: What about the GI50 (OVCAR-4) of the same compound?
A: The GI50 was > 100 µM (inactive).

Q: And the GI50 (HOP-92)?
A: The GI50 was 38.2 µM (inactive).

Q: What about the GI50 (SK-OV-3) of the same compound?
A: Its GI50 is 11.3 µM (inactive).

Q: What about the GI50 (LOX IMVI) of the same compound?
A: The GI50 was 8.59 µM (inactive).

Q: And the GI50 (UACC-62)?
A: Its GI50 is 1.7 µM (inactive).

Q: What about the GI50 (MOLT-4) of the same compound?
A: Its GI50 is 0.44 µM (active).

Q: And the GI50 (OVCAR-3)?
A: The GI50 was 53.5 µM (inactive).

Q: What about the GI50 (A498) of the same compound?
A: Its GI50 is 46.2 µM (inactive).

Q: And the GI50 (T47D)?
A: Its GI50 is 6.64 µM (inactive).

Q: What about the GI50 (RXF 393) of the same compound?
A: Its GI50 is 30.3 µM (inactive).

Q: What about the GI50 (SK-MEL-5) of the same compound?
A: Its GI50 is 9.2 µM (inactive).

Q: What about the GI50 (UACC-257) of the same compound?
A: The GI50 was > 83.9 µM (inactive).

Q: What about the GI50 (HCC 2998) of the same compound?
A: Its GI50 is > 80.5 µM (inactive).

Q: What about the GI50 (KM12) of the same compound?
A: Its GI50 is > 100 µM (inactive).

Q: And the GI50 (MDA-MB-231)?
A: The GI50 was > 57.1 µM (inactive).

Q: What about the GI50 (NCI/ADR-RES) of the same compound?
A: The GI50 was 41.9 µM (inactive).

Q: And the GI50 (MDA-MB-435)?
A: The GI50 was 90.6 µM (inactive).

Q: And the GI50 (SK-MEL-28)?
A: Its GI50 is > 66.1 µM (inactive).

Q: What about the GI50 (SK-MEL-2) of the same compound?
A: Its GI50 is > 42 µM (inactive).

Q: What about the GI50 (DU-145) of the same compound?
A: Its GI50 is 12 µM (inactive).

Q: And the GI50 (HT-29)?
A: The GI50 was 46.5 µM (inactive).

Q: What about the GI50 (RPMI-8226) of the same compound?
A: The GI50 was 71.3 µM (inactive).

Q: What about the GI50 (SW-620) of the same compound?
A: The GI50 was 10.2 µM (inactive).

Q: What about the GI50 (MDA-N) of the same compound?
A: The GI50 was 41.6 µM (inactive).

Q: And the GI50 (Malme-3M)?
A: Its GI50 is 67.5 µM (inactive).

Q: And the GI50 (Hs-578T)?
A: The GI50 was > 80 µM (inactive).

Q: What about the GI50 (IGROV-1) of the same compound?
A: Its GI50 is 2.47 µM (inactive).

Q: And the GI50 (K562)?
A: Its GI50 is 6.87 µM (inactive).

Q: Which results are given for COCC1N=C(c2cc(OC)c(OC)c(OC)c2-c2cc3c(cc2C2OCCCO2)OCO3)O[C@H]1c1ccccc1 (stereo partly specified)?
A: GI50 (UO-31): > 100 µM (inactive); GI50 (NCI-H460): > 100 µM (inactive); GI50 (HL-60): > 100 µM (inactive); GI50 (M14): > 100 µM (inactive); GI50 (HOP-62): > 100 µM (inactive); GI50 (OVCAR-8): > 100 µM (inactive); GI50 (NCI-H226): > 100 µM (inactive); GI50 (KM-20L2): > 100 µM (inactive); GI50 (SF-295): > 100 µM (inactive); GI50 (SNB-75): > 100 µM (inactive); GI50 (SF-539): > 100 µM (inactive); GI50 (A549): > 100 µM (inactive); GI50 (HCT-116): > 100 µM (inactive); GI50 (TK-10): > 100 µM (inactive); GI50 (HCT-15): > 100 µM; GI50 (ACHN): > 100 µM (inactive); GI50 (OVCAR-5): > 100 µM (inactive); GI50 (U-251): > 100 µM (inactive); GI50 (M19-MEL): > 100 µM (inactive); GI50 (CCRF-CEM): > 100 µM (inactive); GI50 (NCI-H522): > 100 µM (inactive); GI50 (EKVX): > 100 µM (inactive); GI50 (NCI-H23): > 100 µM (inactive); GI50 (786-0): > 100 µM (inactive); GI50 (SF-268): > 100 µM (inactive); GI50 (SN12C): > 100 µM (inactive); GI50 (DLD-1): > 100 µM (inactive); GI50 (SNB-19): > 100 µM (inactive); GI50 (CAKI-1): 79.4 µM (inactive); GI50 (OVCAR-4): > 100 µM (inactive); GI50 (HOP-92): > 100 µM (inactive); GI50 (SK-OV-3): > 100 µM (inactive); GI50 (LOX IMVI): > 100 µM (inactive); GI50 (DMS-273): > 100 µM (inactive); GI50 (UACC-62): > 100 µM (inactive); GI50 (MOLT-4): > 100 µM (inactive); GI50 (OVCAR-3): > 100 µM (inactive); GI50 (A498): > 100 µM (inactive); GI50 (DMS-114): > 100 µM (inactive); GI50 (RXF 393): > 100 µM (inactive); GI50 (SK-MEL-5): > 100 µM (inactive); GI50 (UACC-257): > 100 µM (inactive); GI50 (HCC 2998): > 100 µM (inactive); GI50 (KM12): > 100 µM (inactive); GI50 (SK-MEL-28): > 100 µM (inactive); GI50 (SK-MEL-2): > 100 µM (inactive); GI50 (HT-29): > 100 µM (inactive); GI50 (RPMI-8226): > 100 µM (inactive); GI50 (SW-620): > 100 µM (inactive); GI50 (Malme-3M): > 100 µM (inactive); GI50 (IGROV-1): > 100 µM (inactive); GI50 (K562): > 100 µM (inactive)
